Experimental data: patent EP4745135A1 (Gluetacs Therapeutics (Shanghai) Co., Ltd., priority 2023, dated 2025)

What was measured:
[1] = system: Human breast cancer cell (MCF-7); assay: Tumor cell proliferation inhibition (CellTiter-Meiluncell luminescent cell viability assay); details: MCF7, 96 h; for inhibition at 0.01 µM: read-out: Inhibition Rate at 10 nM (%); for inhibition at 0.5 µM: read-out: Inhibition Rate at 500 nM (%)
[2] = molecular target: T1, human Cereblon WT GST-tagged protein (Homo sapiens, UniProt Q96SW2); assay: CRBN-binding affinity, HTRF (CEREBLON BINDING kit); details: for inhibition at 0.5 µM: read-out: Inhibition Rate at 0.5 µM (%); for inhibition at 2 µM: read-out: Inhibition Rate at 2 µM (%)
T1 construct: purchased CISBIO 64BDCRBNPEH
T1 sequence (Q96SW2 whole entry): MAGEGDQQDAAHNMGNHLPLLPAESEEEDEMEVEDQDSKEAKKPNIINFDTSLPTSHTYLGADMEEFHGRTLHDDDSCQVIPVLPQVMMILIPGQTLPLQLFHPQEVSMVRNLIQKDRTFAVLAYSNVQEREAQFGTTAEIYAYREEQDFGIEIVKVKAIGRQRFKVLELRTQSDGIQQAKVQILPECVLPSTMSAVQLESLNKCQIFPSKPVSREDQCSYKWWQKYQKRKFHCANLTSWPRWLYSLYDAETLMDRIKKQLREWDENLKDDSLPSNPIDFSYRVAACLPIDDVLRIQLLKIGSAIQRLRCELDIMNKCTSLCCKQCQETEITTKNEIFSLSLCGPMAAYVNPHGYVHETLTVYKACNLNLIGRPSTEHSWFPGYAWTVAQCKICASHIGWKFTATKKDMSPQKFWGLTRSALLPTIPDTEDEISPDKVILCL

[3] = system: Human myeloid monocytic leukemia cell (MV-4-11); assay: Tumor cell proliferation inhibition (CellTiter-Meiluncell luminescent cell viability assay); details: MV4-11, 96 h; for inhibition at 0.01 µM: read-out: Inhibition Rate at 10 nM (%); for inhibition at 0.5 µM: read-out: Inhibition Rate at 500 nM (%)
Method: The tumor cells used herein were cultured in a cell culture medium listed in table 2 at 37°C in an incubator with 5% CO2. Prior to experimentation, all cell lines used were correctly identified by STR profiling, and tested negative for mycoplasma contamination using a mycoplasma detection kit through routine screenings.
The IC50 values of the compounds of the present disclosure (including the compounds in Table 1 and Examples) were determined using the CellTiter-Meiluncell Luminescent Cell Viability Assay Kit from Dalian Meilun Biotech Co., Ltd. The detailed procedure is as follows: Tumor cells were seeded in 96-well cell culture plates at the densities specified in Table 3. On the following day, the test compounds of the present disclosure were subjected to serial dilution. The dilution can be performed according to one of the following two methods: • (1) The first dilution method: The test compounds of the present disclosure (including the compounds in Table 1 and Examples) were subjected to 5-fold serial dilutions starting from a highest concentration of 2000 µM, resulting in a total of 9 concentrations from high to low (2000, 400, 80, 16, 3.2, 0.64, 0.128, 0.0256, 0.00512 µM). Subsequently, 0.5 µL of the test compound dilution was transferred into the 96-well plate containing the cells, with each well containing 100 µL of cell culture medium. […] Into the 96-well plate, the diluted test compounds and corresponding detection reagents were added, resulting in final test compound concentrations of 500 nM and 10 nM, respectively. The experimental procedure is described below using the diluted 2 µM test compound as an example.
0.5 µL of the aforementioned diluted compound of the present disclosure (including the compounds in Table 1 and Examples) was added to the seeded cells in 100 µL of medium, yielding a final test compound concentration of 10 nM. After the cells were treated with the compounds of the present disclosure for a specified period, the cell viability assay reagent was added to the culture medium according to the kit's instructions to determine cell viability. […] All controls were treated using the same procedure as the compounds of the present disclosure. The growth inhibition curves for the compounds of the present disclosure were plotted using Prism GraphPad software, and the IC50 values were calculated therefrom.

GSPT1 = assay: Western blot, degradation of substrate protein in hPBMCs; assay type: cell-based, Human
IKZF1 = molecular target: T2, IKZF1 (Homo sapiens, UniProt Q13422+Q96SW2); assay: as above; assay type: cell-based
T2 construct: effects of the compounds of the present disclosure on the expression of target proteins in cells; endogenous in cells; host or cells: human PBMCs (Milecell Biotechnologies)
T2 sequence (Q13422 whole entry): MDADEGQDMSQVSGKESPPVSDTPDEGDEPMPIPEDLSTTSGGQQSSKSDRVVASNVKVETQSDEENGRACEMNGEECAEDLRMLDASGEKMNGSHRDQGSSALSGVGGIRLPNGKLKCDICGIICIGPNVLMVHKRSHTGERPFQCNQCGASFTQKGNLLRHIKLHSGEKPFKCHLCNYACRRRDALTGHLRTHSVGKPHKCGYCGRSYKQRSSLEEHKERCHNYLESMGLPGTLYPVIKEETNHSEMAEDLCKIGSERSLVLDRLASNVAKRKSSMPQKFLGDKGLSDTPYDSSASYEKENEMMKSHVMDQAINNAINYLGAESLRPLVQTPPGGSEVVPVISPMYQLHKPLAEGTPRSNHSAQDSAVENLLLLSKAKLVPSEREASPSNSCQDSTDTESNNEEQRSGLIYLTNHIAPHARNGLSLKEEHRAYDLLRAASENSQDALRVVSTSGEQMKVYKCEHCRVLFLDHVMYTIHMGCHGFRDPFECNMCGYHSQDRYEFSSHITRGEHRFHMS
T2 sequence (Q96SW2 whole entry): as the sequence (Q96SW2 whole entry) above
T2 sequence (Q16531 whole entry partner): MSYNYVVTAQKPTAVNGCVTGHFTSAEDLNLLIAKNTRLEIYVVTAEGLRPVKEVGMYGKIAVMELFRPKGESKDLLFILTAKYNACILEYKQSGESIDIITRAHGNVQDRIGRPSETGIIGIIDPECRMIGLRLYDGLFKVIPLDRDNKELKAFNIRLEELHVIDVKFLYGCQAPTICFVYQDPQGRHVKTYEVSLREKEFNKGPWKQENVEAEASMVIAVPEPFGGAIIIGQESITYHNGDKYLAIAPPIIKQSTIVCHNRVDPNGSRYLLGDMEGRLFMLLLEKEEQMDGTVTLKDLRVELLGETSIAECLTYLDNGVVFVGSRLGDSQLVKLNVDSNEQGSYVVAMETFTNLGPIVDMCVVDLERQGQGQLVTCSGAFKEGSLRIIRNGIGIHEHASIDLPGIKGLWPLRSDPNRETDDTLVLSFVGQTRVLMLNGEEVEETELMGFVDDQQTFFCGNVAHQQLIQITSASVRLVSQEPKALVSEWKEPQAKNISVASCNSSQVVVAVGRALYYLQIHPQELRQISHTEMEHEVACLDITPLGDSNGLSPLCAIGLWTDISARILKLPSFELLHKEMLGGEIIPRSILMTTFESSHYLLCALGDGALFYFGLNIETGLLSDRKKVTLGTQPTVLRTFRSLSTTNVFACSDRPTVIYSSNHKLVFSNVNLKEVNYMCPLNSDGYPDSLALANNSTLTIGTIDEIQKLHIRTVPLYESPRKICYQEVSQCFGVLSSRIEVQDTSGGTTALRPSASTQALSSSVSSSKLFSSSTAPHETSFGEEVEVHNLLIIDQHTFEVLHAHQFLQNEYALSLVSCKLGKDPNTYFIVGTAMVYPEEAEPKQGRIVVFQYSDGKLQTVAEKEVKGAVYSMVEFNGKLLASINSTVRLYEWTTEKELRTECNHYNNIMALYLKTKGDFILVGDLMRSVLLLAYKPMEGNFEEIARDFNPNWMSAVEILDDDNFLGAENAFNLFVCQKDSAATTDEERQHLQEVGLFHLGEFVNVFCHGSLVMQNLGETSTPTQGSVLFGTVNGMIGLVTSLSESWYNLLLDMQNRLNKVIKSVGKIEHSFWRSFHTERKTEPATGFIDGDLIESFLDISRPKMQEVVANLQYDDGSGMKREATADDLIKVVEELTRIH

IKZF3 = molecular target: T3, IKZF3 (Homo sapiens, UniProt Q96SW2+Q9UKT9); assay: as above; assay type: cell-based
T3 construct: effects of the compounds of the present disclosure on the expression of target proteins in cells; endogenous in cells; host or cells: human PBMCs (Milecell Biotechnologies)
T3 sequence (Q9UKT9 whole entry): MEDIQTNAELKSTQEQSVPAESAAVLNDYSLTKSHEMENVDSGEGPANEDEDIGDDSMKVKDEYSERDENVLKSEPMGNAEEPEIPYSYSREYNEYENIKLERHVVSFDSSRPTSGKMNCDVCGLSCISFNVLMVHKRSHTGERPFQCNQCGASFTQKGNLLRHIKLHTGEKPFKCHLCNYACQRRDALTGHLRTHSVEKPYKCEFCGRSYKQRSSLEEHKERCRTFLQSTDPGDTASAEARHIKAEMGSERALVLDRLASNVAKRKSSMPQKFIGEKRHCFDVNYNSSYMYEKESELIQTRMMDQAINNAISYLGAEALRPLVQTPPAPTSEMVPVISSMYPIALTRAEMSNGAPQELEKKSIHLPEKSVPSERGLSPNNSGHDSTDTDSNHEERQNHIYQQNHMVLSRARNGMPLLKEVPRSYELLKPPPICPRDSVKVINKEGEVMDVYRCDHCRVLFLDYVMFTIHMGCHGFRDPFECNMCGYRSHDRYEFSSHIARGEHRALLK
T3 sequence (Q96SW2 whole entry): as the sequence (Q96SW2 whole entry) above
T3 sequence (Q16531 whole entry partner): as the sequence (Q16531 whole entry partner) above

IKZF2 = molecular target: T4, IKZF2 (Homo sapiens, UniProt Q96SW2+Q9UKS7); assay: as above; assay type: cell-based
T4 construct: effects of the compounds of the present disclosure on the expression of target proteins in cells; endogenous in cells; host or cells: human PBMCs (Milecell Biotechnologies)
T4 sequence (Q9UKS7 whole entry): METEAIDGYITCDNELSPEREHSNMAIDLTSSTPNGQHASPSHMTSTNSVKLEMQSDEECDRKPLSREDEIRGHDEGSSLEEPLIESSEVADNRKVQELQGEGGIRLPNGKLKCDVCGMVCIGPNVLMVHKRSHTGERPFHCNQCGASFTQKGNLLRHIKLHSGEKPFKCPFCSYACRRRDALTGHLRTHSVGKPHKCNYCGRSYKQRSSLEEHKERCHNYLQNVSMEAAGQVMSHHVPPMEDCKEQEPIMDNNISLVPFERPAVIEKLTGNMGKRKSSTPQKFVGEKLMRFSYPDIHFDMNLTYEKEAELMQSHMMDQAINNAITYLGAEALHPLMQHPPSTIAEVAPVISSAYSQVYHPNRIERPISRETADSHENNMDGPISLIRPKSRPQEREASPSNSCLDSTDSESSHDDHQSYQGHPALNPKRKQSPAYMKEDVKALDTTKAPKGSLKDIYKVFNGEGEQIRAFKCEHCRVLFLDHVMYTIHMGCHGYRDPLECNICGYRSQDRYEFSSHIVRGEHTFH
T4 sequence (Q96SW2 whole entry): as the sequence (Q96SW2 whole entry) above
T4 sequence (Q16531 whole entry partner): as the sequence (Q16531 whole entry partner) above

WEE1 = molecular target: T5, WEE1 (Homo sapiens, UniProt P30291+Q96SW2); assay: as above; assay type: cell-based
T5 construct: effects of the compounds of the present disclosure on the expression of target proteins in cells; endogenous in cells; host or cells: human PBMCs (Milecell Biotechnologies)
T5 sequence (P30291 whole entry): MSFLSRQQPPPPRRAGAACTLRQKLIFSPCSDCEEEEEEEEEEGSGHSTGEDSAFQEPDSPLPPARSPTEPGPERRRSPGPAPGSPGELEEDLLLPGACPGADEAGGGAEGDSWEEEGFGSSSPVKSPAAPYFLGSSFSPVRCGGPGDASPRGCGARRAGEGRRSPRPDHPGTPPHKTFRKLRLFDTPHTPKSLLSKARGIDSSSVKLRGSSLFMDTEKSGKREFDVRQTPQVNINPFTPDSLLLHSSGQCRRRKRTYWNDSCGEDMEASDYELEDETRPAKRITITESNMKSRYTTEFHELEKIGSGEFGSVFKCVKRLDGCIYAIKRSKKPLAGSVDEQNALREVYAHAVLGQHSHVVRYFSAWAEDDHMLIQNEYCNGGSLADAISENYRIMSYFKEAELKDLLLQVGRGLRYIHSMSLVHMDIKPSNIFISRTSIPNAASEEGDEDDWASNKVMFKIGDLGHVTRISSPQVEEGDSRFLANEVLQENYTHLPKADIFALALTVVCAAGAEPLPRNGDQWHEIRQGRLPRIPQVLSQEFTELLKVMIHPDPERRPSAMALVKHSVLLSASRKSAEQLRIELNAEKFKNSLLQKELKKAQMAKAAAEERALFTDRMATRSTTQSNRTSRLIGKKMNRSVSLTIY
T5 sequence (Q96SW2 whole entry): as the sequence (Q96SW2 whole entry) above
T5 sequence (Q16531 whole entry partner): as the sequence (Q16531 whole entry partner) above

CK1α = molecular target: T6, CK1α (Homo sapiens, UniProt P48729+Q96SW2); assay: as above; assay type: cell-based
T6 construct: effects of the compounds of the present disclosure on the expression of target proteins in cells; endogenous in cells; host or cells: human PBMCs (Milecell Biotechnologies)
T6 sequence (P48729 whole entry): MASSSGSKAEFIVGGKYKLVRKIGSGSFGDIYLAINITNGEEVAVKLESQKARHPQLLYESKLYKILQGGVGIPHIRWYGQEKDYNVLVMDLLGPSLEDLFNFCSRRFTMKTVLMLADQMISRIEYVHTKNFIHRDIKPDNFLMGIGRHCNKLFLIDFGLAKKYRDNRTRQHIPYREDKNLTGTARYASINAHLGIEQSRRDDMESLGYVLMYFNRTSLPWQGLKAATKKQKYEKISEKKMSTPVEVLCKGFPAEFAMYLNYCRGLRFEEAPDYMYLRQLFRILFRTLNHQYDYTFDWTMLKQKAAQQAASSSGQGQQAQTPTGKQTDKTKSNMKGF
T6 sequence (Q96SW2 whole entry): as the sequence (Q96SW2 whole entry) above
T6 sequence (Q16531 whole entry partner): as the sequence (Q16531 whole entry partner) above

[4] = system: Human multiple myeloma cell (MM.1S); assay: Tumor cell proliferation inhibition (CellTiter-Meiluncell luminescent cell viability assay); details: for inhibition at 0.01 µM / inhibition at 0.5 µM: Homo sapiens, MM1.S, 96 h; for inhibition at 0.01 µM: read-out: Inhibition Rate at 10 nM (%); for inhibition at 0.5 µM: read-out: Inhibition Rate at 500 nM (%)
[5] = Western blot, 24 hours of compound treatment, compounds tested at 50 nM and 500 nM (concentration for the table not stated)
[6] = 24 hours treatment, compounds at 50 nM and 500 nM (concentration behind the class not stated)

Structure (SMILES) | inhibition at 0.01 µM [1] [%] | inhibition at 0.5 µM [1] [%] | inhibition at 0.5 µM [2] [%] | inhibition at 2 µM [2] [%] | inhibition at 0.01 µM [3] [%] | inhibition at 0.5 µM [3] [%] | GSPT1 substrate protein remaining % (GSPT1; [5]) | IKZF 1 substrate protein remaining % (IKZF1; [5]) | IKZF3 substrate protein remaining % (IKZF3; [5]) | IKZF2 substrate protein remaining % (IKZF2; [5]) | Wee1 substrate protein remaining % (WEE1; [5]) | CK1α substrate protein remaining % (CK1α; [5]) | inhibition at 0.01 µM [4] [%] | inhibition at 0.5 µM [4] [%] | GSPT1 substrate protein remaining % (GSPT1; [6]) | IKZF 1 substrate protein remaining % (IKZF1; [6]) | IKZF3 substrate protein remaining % (IKZF3; [6]) | IKZF2 substrate protein remaining % (IKZF2; [6]) | Wee1 substrate protein remaining % (WEE1; [6]) | CK1α substrate protein remaining % (CK1α; [6]) | further results
O=C1CCC(N2Cc3cc(CN4CCC(N5CCCc6cc(F)ccc65)CC4)ccc3C2=S)C(=O)N1 (stereo not drawn) [GT-09271, 3-(5-((4-(6-fluoro-3,4-dihydroquinolin-1(2H)-yl)piperidin-1-yl)methyl)-1-thioxoisoindolin-2-yl)piperidine-2,6-dione] | 20 to 30 | 40 to 50 | 60 to 80 | 80 to 100 | 40 to 60 | 40 to 60 |  |  |  |  |  |  |  |  |  |  |  |  |  |  | 
Cc1ccc(N2CCN(Cc3cccc4c3CN(C3CCC(=O)NC3=O)C4=S)CC2)c(C)c1 (stereo not drawn) [GT-08504, 3-(4-((4-(2,4-dimethylphenyl)piperazin-1-yl)methyl)-1-thioxoisoindolin-2-yl)piperidine-2,6-dione] | 20 to 30 | 40 to 50 | 30 to 40 | 60 to 80 | 40 to 60 | 40 to 60 | A (0% ≤ substrate protein remaining % ≤ 80%) | B (80%< substrate protein remaining %≤ 100%) | A (0% ≤ substrate protein remaining % ≤ 80%) | B (80%< substrate protein remaining %≤ 100%) | A (0% ≤ substrate protein remaining % ≤ 80%) | B (80%< substrate protein remaining %≤ 100%) | 30 to 40 | 50 to 60 |  |  |  |  |  |  | 
O=C1CCC(N2Cc3c(CN4CCN(c5n[nH]c6cc(F)ccc56)CC4)cccc3C2=S)C(=O)N1 (stereo not drawn) [GT-08840, 3-(4-((4-(6-fluoro-1H-indazol-3-yl)piperazin-1-yl)methyl)-1-thioxoisoindolin-2-yl)piperidine-2,6-dione] | 50 to 60 | 60 to 70 | 60 to 80 | 80 to 100 | 40 to 60 | 40 to 60 | B (80%< substrate protein remaining %≤ 100%) | B (80%< substrate protein remaining %≤ 100%) | B (80%< substrate protein remaining %≤ 100%) | B (80%< substrate protein remaining %≤ 100%) | A (0% ≤ substrate protein remaining % ≤ 80%) | B (80%< substrate protein remaining %≤ 100%) |  |  |  |  |  |  |  |  | 
O=C1CCC(N2Cc3c(CN4CC(C5CCOc6cc(F)ccc65)C4)cccc3C2=S)C(=O)N1 (stereo not drawn) [GT-08859, 3-(4-((3-(7-fluorochroman-4-yl)azetidin-1-yl)methyl)-1-thioxoisoindolin-2-yl)piperidine-2,6-dione] | 50 to 60 | 40 to 50 | 53 to 60 | 80 to 100 |  |  |  |  |  |  |  |  | 30 to 40 | 50 to 60 | A (0% ≤ substrate protein remaining % ≤ 80%) | B (80%< substrate protein remaining %≤ 100%) | B (80%< substrate protein remaining %≤ 100%) | B (80%< substrate protein remaining %≤ 100%) | B (80%< substrate protein remaining %≤ 100%) | B (80%< substrate protein remaining %≤ 100%) | 
O=C1CCC(N2Cc3c(CN4CCN(c5ncnc6scc(-c7ccccc7)c56)CC4)cccc3C2=S)C(=O)N1 (stereo not drawn) [GT-08920, 3-(4-((4-(5-phenylthieno[2,3-d]pyrimidin-4-yl)piperazin-1-yl)methyl)-1-thioxoisoindolin-2-yl)piperidine-2,6-dione] | 50 to 60 | 30 to 40 | 40 to 53 | 80 to 100 |  |  |  |  |  |  |  |  | 30 to 40 | 40 to 50 |  |  |  |  |  |  | 
O=C1CCC(N2Cc3c(CN4CCC(N5CCc6cc(F)ccc65)CC4)cccc3C2=S)C(=O)N1 (stereo not drawn) [GT-08845, 3-(4-((4-(5-fluoroindolin-1-yl)piperidin-1-yl)methyl)-1-thioxoisoindolin-2-yl)piperidine-2,6-dione] | 50 to 60 | 60 to 70 | 40 to 53 | 80 to 100 |  |  | A (0% ≤ substrate protein remaining % ≤ 80%) | B (80%< substrate protein remaining %≤ 100%) | B (80%< substrate protein remaining %≤ 100%) | B (80%< substrate protein remaining %≤ 100%) | A (0% ≤ substrate protein remaining % ≤ 80%) | B (80%< substrate protein remaining %≤ 100%) | 20 to 30 | 40 to 50 |  |  |  |  |  |  | 
O=C1CCC(N2Cc3c(CN4CCC(n5c(=O)[nH]c6cc(F)ccc65)CC4)cccc3C2=S)C(=O)N1 (stereo not drawn) [GT-08843, 3-(4-((4-(5-fluoro-2-oxo-2,3-dihydro-1H-benzo[d]imidazol-1-yl)piperidin-1-yl)methyl)-1-thioxoisoindolin-2-yl)piperidine-2,6-dione] | 60 to 70 | 60 to 70 | 60 to 80 | 80 to 100 |  |  | B (80%< substrate protein remaining %≤ 100%) | B (80%< substrate protein remaining %≤ 100%) | B (80%< substrate protein remaining %≤ 100%) | B (80%< substrate protein remaining %≤ 100%) | A (0% ≤ substrate protein remaining % ≤ 80%) | B (80%< substrate protein remaining %≤ 100%) |  |  |  |  |  |  |  |  | 
O=C1CCC(N2Cc3c(CN4CCC(N5C(=O)COc6cc(F)ccc65)CC4)cccc3C2=S)C(=O)N1 (stereo not drawn) [GT-08853, 3-(4-((4-(7-fluoro-3-oxo-2,3-dihydro-4H-benzo[b][1,4]oxazin-4-yl)piperidin-1-yl)methyl)-1-thioxoisoindolin-2-yl)piperidine-2,6-dione] | 5 to 10 | 40 to 50 | 60 to 80 | 80 to 100 |  |  |  |  |  |  |  |  | 30 to 40 | 40 to 50 | B (80%< substrate protein remaining %≤ 100%) | B (80%< substrate protein remaining %≤ 100%) | A (0% ≤ substrate protein remaining % ≤ 80%) | B (80%< substrate protein remaining %≤ 100%) | B (80%< substrate protein remaining %≤ 100%) | B (80%< substrate protein remaining %≤ 100%) | 
Cc1cc(N2CCN(Cc3ccc4c(c3)CN(C3CCC(=O)NC3=O)C4=S)CC2)cc(C)n1 (stereo not drawn) [GT-09247, 3-(5-((4-(2,6-dimethylpyridin-4-yl)piperazin-1-yl)methyl)-1-thioxoisoindolin-2-yl)piperidine-2,6-dione] | 20 to 30 | 40 to 50 | 60 to 80 | 80 to 100 | 40 to 60 | 40 to 60 |  |  |  |  |  |  | 50 to 60 |  |  |  |  |  |  |  | Inhibition Rate at 500 nM (%) ([4]; MM.1S, 500 nM, 96 hours): la7
O=C1CCC(N2Cc3c(CN4CC(n5cnc6cc(F)ccc65)C4)cccc3C2=S)C(=O)N1 (stereo not drawn) [GT-08861, 3-(4-((3-(5-fluoro-1H-benzo[d]imidazol-1-yl)azetidin-1-yl)methyl)-1-thioxoisoindolin-2-yl)piperidine-2,6-dione] | 30 to 40 | 40 to 50 | 40 to 53 | 80 to 100 |  |  |  |  |  |  |  |  |  |  | B (80%< substrate protein remaining %≤ 100%) | B (80%< substrate protein remaining %≤ 100%) | B (80%< substrate protein remaining %≤ 100%) | B (80%< substrate protein remaining %≤ 100%) | A (0% ≤ substrate protein remaining % ≤ 80%) | B (80%< substrate protein remaining %≤ 100%) | 
